According to patent publication US11524955B2, “2,4-diamino-pyrimidine compounds and method for making and using the compounds” (Rigel Pharmaceuticals, Inc., priority 2016, dated 2022):
Where two headings read alike, the source gives them in different places.

Key:
IL-23, dendritic cells = test: IL-23 assay, human primary monocyte-derived dendritic cells, LPS stimulated, ELISA; type: cell-based; conditions: Dendritic cell
Experimental: (§1) IL-23 assays: THP1 cells or human primary monocyte-derived dendritic cells (DC) were primed overnight with IFNg. Following one hour preincubation with compound, cells were stimulated overnight with LPS. IL-23 released into the media was quantitated by ELISA.

IL-23, THP1 cells = test: IL-23 assay, THP1 cells primed with IFNg, LPS stimulated, ELISA; type: cell-based; conditions: Homo sapiens, THP-1
Experimental: as §1

TAK1 = molecular target: T1, TAK1 (Homo sapiens, UniProt O43318); test: TAK1 biochemical assay, ADP-Glo kinase assay
T1 sequence (O43318 1-303 limits assumed): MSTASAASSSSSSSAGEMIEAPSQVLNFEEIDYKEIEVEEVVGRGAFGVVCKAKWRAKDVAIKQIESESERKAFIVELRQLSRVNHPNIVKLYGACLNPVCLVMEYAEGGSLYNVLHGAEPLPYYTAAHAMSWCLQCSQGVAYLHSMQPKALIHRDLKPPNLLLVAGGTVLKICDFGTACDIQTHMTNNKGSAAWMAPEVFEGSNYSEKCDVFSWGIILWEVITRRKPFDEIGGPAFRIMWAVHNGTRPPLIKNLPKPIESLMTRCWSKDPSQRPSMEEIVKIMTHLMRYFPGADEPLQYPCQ
Experimental: (§2) IRAK4 and TAK1 biochemical assays: kinase activity was measured by ADP-Glo kinase assay (Promega).

IRAK4 = molecular target: T2, IRAK4 (Homo sapiens, UniProt Q9NWZ3); test: IRAK4 biochemical assay, ADP-Glo kinase assay; conditions: for Selectivity (TAK1/IRAK4): ratio of TAK1 and IRAK4 IC50
T2 sequence (Q9NWZ3 1-460): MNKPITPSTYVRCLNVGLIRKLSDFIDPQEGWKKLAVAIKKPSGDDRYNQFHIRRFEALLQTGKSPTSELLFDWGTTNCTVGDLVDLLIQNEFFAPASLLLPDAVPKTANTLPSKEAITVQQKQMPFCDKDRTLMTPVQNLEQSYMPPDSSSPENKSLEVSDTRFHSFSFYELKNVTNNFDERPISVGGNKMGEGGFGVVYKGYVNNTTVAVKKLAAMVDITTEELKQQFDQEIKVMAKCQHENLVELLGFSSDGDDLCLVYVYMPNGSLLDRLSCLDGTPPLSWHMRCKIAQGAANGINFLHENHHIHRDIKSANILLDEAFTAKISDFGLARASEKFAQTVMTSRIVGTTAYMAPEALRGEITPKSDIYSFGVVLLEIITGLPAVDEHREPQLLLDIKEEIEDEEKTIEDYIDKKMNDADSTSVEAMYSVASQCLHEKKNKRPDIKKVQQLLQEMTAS
Experimental: as §2

IL-8, HUVEC = test: IL-8 assay, HUVEC, ELISA; type: cell-based, human; conditions: for IC50: Homo sapiens
IL-6, HUVEC = test: IL-6 assay, HUVEC, ELISA; type: cell-based, human; conditions: for IC50: Homo sapiens
[1] = LPS stimulated, 10 pt, read-out: IL23-P19, ELISA, Dendritic, LPS, 10 pt
[2] = THP1 cells, IFNy primed, LPS stimulated, 10 pt, read-out: IL23-p19 ELISA, THP1-IFNy, LPS, 10 pt
[3] = read-out: IL23 (LPS induced) IC50

IC50 (IL-23, dendritic cells; [1]) [nM] | IC50 (IL-23, THP1 cells; [2]) [nM] | IC50 (TAK1) [nM] | IC50 (IRAK4) [nM] | IC50 (IL-23, THP1 cells; [3]) [nM] | Selectivity (TAK1/IRAK4) (IRAK4) | Compound | also measured
< 250 | < 100 | – | – | – | – | Cc1cc(Nc2ncc(-c3cccnc3)c(NC3C4C=CC(C4)C3C(N)=O)n2)ccc1OCCN1CCCC1 (stereo not shown) [Compound 1, 3-((2-((3-methyl-4-(2-(pyrrolidin-1-yl)ethoxy)phenyl)amino)-5-(pyridin-3-yl)pyrimidin-4-yl)amino)bicyclo[2.2.1] hept-5-ene-2-carboxamide] | –
– | < 1000 | – | – | – | – | NC(=O)[C@@H]1[C@H](Nc2nc(Nc3ccc(OCCN4CCCC4)cc3)ncc2-c2cccnc2)[C@H]2C=C[C@@H]1C2 [Compound 2] | –
– | < 1000 | – | – | – | – | CS(=O)(=O)N1CCN(c2ccc(Nc3ncc(-c4cccnc4)c(N[C@@H]4C5C=CC(C5)[C@@H]4C(N)=O)n3)cc2F)CC1 (stereo partly drawn) [Compound 3, (2S,3R)-3-((2-((3-fluoro-4-(4-(methylsulfonyl)piperazin-1-yl)phenyl)amino)-5-(pyridin-3-yl)pyrimidin-4-yl)amino)bicyclo[2.2.1] hept-5-ene-2-carboxamide] | –
– | < 1000 | 229 | 10 | 320 | – | NC(=O)[C@@H]1[C@H](Nc2nc(Nc3cccc(C(=O)N4CCCC4)c3)ncc2-c2cccnc2)[C@H]2C=C[C@@H]1C2 [Compound 4, (1S,2S,3R,4R)-3-((5-(pyridin-3-yl)-2-((3-(pyrrolidine-1-carbonyl)phenyl)amino)pyrimidin-4-yl)amino)bicyclo[2.2.1] hept-5-ene-2-carboxamide] | –
– | < 100 | 8 | 3 | 100 | – | Cc1cnc(Nc2cccc(C(=O)N3CCCC3)c2)nc1N[C@H]1[C@@H](C(N)=O)[C@@H]2C=C[C@H]1C2 [Compound 5, (1S,2S,3R,4R)-3-((5-methyl-2-((3-(pyrrolidine-1-carbonyl)phenyl)amino)pyrimidin-4-yl)amino)bicyclo[2.2.1] hept-5-ene-2-carboxamide] | –
< 100 | < 100 | 11 | 6 | 90 | – | NC(=O)[C@@H]1[C@H](Nc2nc(Nc3cccc(C(=O)N4CCCC4)c3)ncc2C2CC2)[C@H]2C=C[C@@H]1C2 [Compound 6, (1S,2S,3R,4R)-3-((5-cyclopropyl-2-((3-(pyrrolidine-1-carbonyl)phenyl)amino)pyrimidin-4-yl)amino)bicyclo[2.2.1] hept-5-ene-2-carboxamide] | –
< 100 | < 100 | 11 | 2 | 40 | – | NC(=O)[C@@H]1[C@H](Nc2nc(Nc3cccc(C(=O)N4CCCC4)c3)ncc2-c2ccoc2)[C@H]2C=C[C@@H]1C2 [Compound 7, (1S,2S,3R,4R)-3-((5-(furan-3-yl)-2-((3-(pyrrolidine-1-carbonyl)phenyl)amino)pyrimidin-4-yl)amino)bicyclo[2.2.1] hept-5-ene-2-carboxamide] | –
< 1000 | < 250 | 166 | 10 | 220 | – | NC(=O)[C@@H]1[C@H](Nc2nc(Nc3cccc(C(=O)N4CCCC4)c3)ncc2-c2ccccc2)[C@H]2C=C[C@@H]1C2 [Compound 8, (1S,2S,3R,4R)-3-((5-phenyl-2-((3 (pyrrolidine-1-carbonyl)phenyl)amino)pyrimidin-4-yl)amino)bicyclo[2.2.1] hept-5-ene-2-carboxamide] | –
< 250 | < 250 | 24 | 4 | 130 | 7 | NC(=O)[C@@H]1[C@H](Nc2nc(Nc3cccc(C(=O)N4CCCC4)c3)ncc2-c2ccncc2)[C@H]2C=C[C@@H]1C2 [Compound 9, (1S,2S,3R,4R)-3-((5-(pyridin-4-yl)-2-((3-(pyrrolidine-1-carbonyl)phenyl)amino)pyrimidin-4-yl)amino)bicyclo[2.2.1] hept-5-ene-2-carboxamide] | –
– | < 1000 | 4800 | 11 | 870 | 434 | NC(=O)[C@@H]1[C@H](Nc2nc(Nc3cccc(C(=O)N4CCCC4)c3)ncc2-c2ccccc2F)[C@H]2C=C[C@@H]1C2 [Compound 10, (1S,2S,3R,4R)-3-((5-(2-fluorophenyl)-2-((3-(pyrrolidine-1-carbonyl)phenyl)amino)pyrimidin-4-yl)amino)bicyclo[2.2.1] hept-5-ene-2-carboxamide] | IRAK4/TAK1 selectivity (IRAK4): 434
< 100 | < 250 | 106 | 6 | 130 | 17 | NC(=O)[C@@H]1[C@H](Nc2nc(Nc3cccc(C(=O)N4CCCC4)c3)ncc2-c2cccc(F)c2)[C@H]2C=C[C@@H]1C2 [Compound 11, (1S,2S,3R,4R)-3-((5-(3-fluorophenyl)-2-((3-(pyrrolidine-1-carbonyl)phenyl)amino)pyrimidin-4-yl)amino)bicyclo[2.2.1] hept-5-ene-2-carboxamide] | IC50 (IL-8, HUVEC; read-out: IL8 (HUVEC, IL-1β) IC50): 310 nM; IC50 (IL-8, HUVEC; read-out: IL8 (HUVEC, LPS) IC50): 950 nM; IC50 (IL-8, HUVEC; read-out: IL8 (HUVEC, TNFα) IC50): 6000 nM; Selectivity IL8 (TNFα/IL-1β) (IL-8, HUVEC; ratio TNFα/IL-1β): 18; Selectivity IL8 (TNFα/LPS) (IL-8, HUVEC; ratio TNFα/LPS): 6; IC50 (IL-23, dendritic cells; LPS, read-out: IL23 (Dentritic Cells, LPS) IC50): 70 nM; IC50 (IL-23, THP1 cells; THP cells, LPS, read-out: IL23 (THP, LPS) IC50): 130 nM; IC50 (IL-6, HUVEC; read-out: IL6 (HUVEC, IL-1β) IC50): 140 nM; IC50 (IL-6, HUVEC; read-out: IL6 (HUVEC, LPS) IC50): 130 nM; IC50 (IL-6, HUVEC; read-out: IL6 (HUVEC, TNFα) IC50): 1700 nM; Selectivity IL6 (TNFα/IL-1β) (IL-6, HUVEC; ratio TNFα/IL-1β): 12; Selectivity IL6 (TNFα/LPS) (IL-6, HUVEC; ratio TNFα/LPS): 13
> 1000 | < 1000 | 670 | 19 | 460 | – | NC(=O)[C@@H]1[C@H](Nc2nc(Nc3cccc(C(=O)N4CCCC4)c3)ncc2-c2ccc(F)cc2)[C@H]2C=C[C@@H]1C2 [Compound 12, (1S,2S,3R,4R)-3-((5-(4-fluorophenyl)-2-((3 (pyrrolidine-1-carbonyl)phenyl)amino)pyrimidin-4-yl)amino)bicyclo[2.2.1] hept-5-ene-2-carboxamide] | –
< 1000 | < 1000 | 105 | 13 | 280 | – | N#Cc1cccc(-c2cnc(Nc3cccc(C(=O)N4CCCC4)c3)nc2N[C@H]2[C@@H](C(N)=O)[C@@H]3C=C[C@H]2C3)c1 [Compound 13, (1S,2S,3R,4R)-3-((5-(3-cyanophenyl)-2-((3-(pyrrolidine-1-carbonyl)phenyl)amino)pyrimidin-4-yl)amino)bicyclo[2.2.1] hept-5-ene-2-carboxamide] | –
< 1000 | < 250 | 1600 | 9 | 190 | – | N#Cc1ccc(-c2cnc(Nc3cccc(C(=O)N4CCCC4)c3)nc2N[C@H]2[C@@H](C(N)=O)[C@@H]3C=C[C@H]2C3)cc1 [Compound 14, (1S,2S,3R,4R)-3-((5-(4-cyanophenyl)-2-((3-(pyrrolidine-1-carbonyl)phenyl)amino)pyrimidin-4-yl)amino)bicyclo[2.2.1] hept-5-ene-2-carboxamide] | –
– | < 1000 | 67 | 30 | 900 | 2 | N#Cc1cccc(-c2cnc(Nc3cccc(C(=O)N4CCCC4)c3)nc2N[C@@H]2CCCC[C@@H]2C(N)=O)c1 [Compound 17, (1S,2R)-2-((5-(3-cyanophenyl)-2-((3-(pyrrolidine-1-carbonyl)phenyl)amino)pyrimidin-4-yl)amino)cyclohexane-1-carboxamide] | –
– | > 1000 | 132000 | 3700 | 3400 | 36 | N#Cc1cccc(-c2cnc(Nc3cccc(C(=O)N4CCCC4)c3)nc2N[C@H]2[C@@H](C#N)[C@@H]3C=C[C@H]2C3)c1 [Compound 18, (1S,2S,3R,4R)-3-((5-(3-cyanophenyl)-2-((3-(pyrrolidine-1-carbonyl)phenyl)amino)pyrimidin-4-yl)amino)bicyclo[2.2.1] hept-5-ene-2-carbonitrile] | –
